In DBAASP one finds MIC data, which are given here for 11 compounds.

Broadly, the MIC is the lowest concentration that inhibits growth of the organism.

In brackets after ≈: the same amount, converted by molar mass.

Holding throughout (test): ≥ marks a high value that may be exact or a test limit, other limits are often not marked, values filed in µg/mL are converted to µM
Assay [1] concerns Micrococcus luteus ATCC 9341.
Assay [2] has as its system Bacillus cereus.
Assay [3] deals with Escherichia coli.
In assay [4] the test system is Staphylococcus aureus.
In assay [5] the test system is Bacillus anthracis.
Assay [6] concerns Micrococcus luteus A270.
Assay [7] has as its system Candida albicans MDM8.
Assay [8] concerns Escherichia coli SBS 363.
The subject of assay [9] is Salmonella enterica subsp. arizonae ATCC 13314.
The subject of assay [10] is Pseudomonas aeruginosa ATCC 27853.
The subject of assay [11] is Escherichia coli DH5alpha.
Assay [12] concerns Staphylococcus xylosus.
In assay [13] the test system is Bacillus subtilis ATCC 6633.
Assay [14] has as its system Candida albicans ATCC 20032.
For assay [15], the system named is Staphylococcus aureus ATCC 25923.
Assay [16] concerns Escherichia coli ATCC 25922.
Assay [17] has as its system Streptococcus pneumoniae.
Assay [18] concerns Streptococcus mutans.
In assay [19] the test system is Serratia marcescens.
The subject of assay [20] is Candida albicans.
For assay [21], the system named is Bacillus subtilis.
Assay [22] concerns Salmonella typhimurium.
In assay [23] the test system is Cryptococcus neoformans.
For assay [24], the system named is Pseudomonas putida.
Assay [25] deals with Saccharomyces cerevisiae.
The test system of assay [26] is Pseudomonas aeruginosa ATCC 15442.
In assay [27] the test system is Staphylococcus aureus ATCC 6538.
Assay [28] relates to Bacillus subtilis CCT 2576.
For assay [29], the system named is Escherichia coli JM109.

For `CC[C@H](C)[C@H](N)C(=O)N[C@@H](CC(C)C)C(=O)N1CCC[C@H]1C(=O)N[C@H](C(=O)N[C@@H](CCCCN)C(=O)N[C@H](C(=O)N1CCC[C@H]1C(=O)N[C@H](C(=O)N[C@H](C(=O)N1CCC[C@H]1C(=O)N[C@H](C(=O)N[C@@H](CCCN=C(N)N)C(=O)N[C@@H](CCCN=C(N)N)C(N)=O)[C@@H](C)CC)[C@@H](C)CC)[C@@H](C)CC)[C@@H](C)CC)[C@@H](C)CC` [ILPIKIPIIPIRR], the MIC in [1] amounted to 25 µM (≈ 38.5 µg/mL).
Regarding `CC(C)C[C@H](NC(=O)[C@H](CC(C)C)NC(=O)[C@H](CO)NC(=O)[C@H](CCCCN)NC(=O)[C@H](CC(C)C)NC(=O)[C@@H]1CCCN1C(=O)[C@H](C)NC(=O)[C@H](Cc1ccccc1)NC(=O)[C@@H]1CCCN1C(=O)[C@H](CC(C)C)NC(=O)[C@@H](NC(=O)[C@H](CCCCN)NC(=O)[C@H](CCCCN)NC(=O)[C@@H](NC(=O)[C@H](CO)NC(=O)[C@@H](N)C(C)C)C(C)C)C(C)C)C(=O)N[C@@H](CO)C(=O)N[C@@H](Cc1ccccc1)C(=O)N[C@@H](C)C(=O)N[C@@H](Cc1ccccc1)C(=O)O` [VSVKKVLPFAPLKSLLSFAF], the MIC is ≥ 117 µM in assay [2], 117 µM (≈ 256 µg/mL) in [3], > 117 µM in [4] and ≥ 117 µM in assay [5].
Regarding `CC[C@H](C)[C@H](NC(=O)[C@H](CC(C)C)NC(=O)[C@H](CO)NC(=O)[C@H](CC(C)C)NC(=O)[C@H](CC(C)C)NC(=O)[C@@H](N)CO)C(=O)N[C@@H](CCCN=C(N)N)C(=O)N[C@@H](CCCCN)C(=O)N[C@@H](CC(C)C)C(=O)N[C@@H](CC(C)C)C(=O)N[C@H](C(N)=O)[C@@H](C)O` [SLLSLIRKLLT], the MIC in assay [6] was 0.4 µM (≈ 0.502 µg/mL); in assay [7], 0.4 µM (≈ 0.502 µg/mL); in [8] it was 1.6 µM (≈ 2.01 µg/mL); in [9], ≥ 50 µM; in assay [10], 1.6 µM (≈ 2.01 µg/mL).
`CC[C@H](C)[C@H](N)C(=O)N[C@@H](CC(C)C)C(=O)N[C@H](C(=O)N[C@@H](CCCCN)C(=O)N[C@@H](CCCN=C(N)N)C(=O)N[C@@H](CCCCN)C(=O)O)[C@@H](C)CC` [ILIKRK]: the MIC in assay [11] and in [12] was ≥ 64 µM throughout.
With `CC(C)C[C@H](NC(=O)[C@@H](NC(=O)[C@@H]1CCCN1C(=O)[C@H](CC(C)C)NC(=O)[C@@H](N)Cc1ccccc1)C(C)C)C(=O)N[C@H](C(=O)N[C@@H](CCCCN)C(=O)N[C@H](C(=O)N[C@@H](Cc1ccccc1)C(=O)N[C@@H](CCCN=C(N)N)C(=O)N[C@@H](Cc1ccc(O)cc1)C(=O)N[C@@H](CO)C(=O)N[C@@H](CCCCN)C(=O)N[C@@H](CCCCN)C(=O)N[C@H](C(=O)N[C@@H](C)C(=O)N[C@@H](C)C(=O)NCC(=O)N[C@@H](CS)C(=O)N[C@@H](Cc1ccccc1)C(=O)O)[C@@H](C)O)C(C)C)C(C)C` [FLPVLVKVFRYSKKTAAGCF], the MIC was 28.1 µM (≈ 64 µg/mL) in assay [2], > 56.3 µM in assay [3], > 113 µM in [4] and ≥ 113 µM in assay [5].
Consider `CC[C@H](C)[C@H](N)C(=O)N[C@@H](CC(C)C)C(=O)NCC(=O)N1CCC[C@H]1C(=O)N[C@H](C(=O)N[C@H](C(=O)N[C@@H](CCCCN)C(=O)N[C@H](C(=O)N[C@H](C(=O)NCC(=O)NCC(=O)N[C@H](C(=O)N[C@H](C(=O)NCC(=O)NCC(=O)N[C@@H](CC(C)C)C(=O)N[C@@H](CC(C)C)C(=O)N[C@@H](CCCCN)C(=O)N[C@@H](CC(N)=O)C(=O)N[C@@H](CC(C)C)C(N)=O)[C@@H](C)CC)C(C)C)[C@@H](C)CC)[C@@H](C)O)[C@@H](C)CC)C(C)C` [ILGPVIKTIGGVIGGLLKNL], for which the MIC in [13] is 9.52 µM (≈ 18.8 µg/mL); in assay [14] it was 9.52 µM (≈ 18.8 µg/mL); in assay [15], 4.76 µM (≈ 9.4 µg/mL); in assay [16], > 50.6 µM.
Take `CC[C@H](C)[C@H](N)C(=O)N[C@@H](CC(C)C)C(=O)NCC(=O)N1CCC[C@H]1C(=O)N[C@H](C(=O)N[C@@H](CC(C)C)C(=O)NCC(=O)N[C@@H](CC(C)C)C(=O)N[C@H](C(=O)N[C@@H](CO)C(=O)N[C@@H](CC(N)=O)C(=O)N[C@H](C(=O)N[C@@H](CC(C)C)C(=O)N[C@@H](CC(=O)O)C(=O)N[C@@H](CC(=O)O)C(=O)N[C@H](C(=O)N[C@@H](CC(C)C)C(=O)NCC(=O)N[C@H](C(=O)N[C@@H](CC(C)C)C(N)=O)[C@@H](C)CC)C(C)C)[C@@H](C)O)C(C)C)C(C)C` [ILGPVLGLVSNTLDDVLGIL]: the MIC in assay [13] was ≥ 49.5 µM; in [14], ≥ 49.5 µM; in assay [15], > 49.5 µM; in [16], > 49.5 µM.
In the case of `CC(C)C[C@H](NC(=O)[C@H](CCCN=C(N)N)NC(=O)[C@H](Cc1cnc[nH]1)NC(=O)[C@@H](NC(=O)[C@H](CCCN=C(N)N)NC(=O)CNC(=O)[C@@H](NC(=O)[C@@H]1CCCN1C(=O)[C@H](Cc1ccccc1)NC(=O)[C@H](CCC(N)=O)NC(=O)[C@H](CC(C)C)NC(=O)CNC(=O)[C@H](C)NC(=O)[C@@H](N)CCCN=C(N)N)C(C)C)C(C)C)C(=O)O` [RAGLQFPVGRVHRL], the minimum inhibitory concentration (MIC) is ≥ 79.7 µM in assay [17]; ≥ 159 µM in assay [18]; 159 µM (≈ 256 µg/mL) in [3]; 159 µM (≈ 256 µg/mL) in assay [4]; ≥ 159 µM in assay [19]; > 159 µM in assay [20]. For the same compound, the minimum inhibitory concentration (MIC) in assay [21] was ≥ 79.7 µM; in [22] it was ≥ 79.7 µM; in assay [23] it was ≥ 159 µM; in assay [24], ≥ 159 µM; in assay [25], ≥ 159 µM.
Take `CC[C@H](C)[C@H](N)C(=O)N[C@@H](CC(C)C)C(=O)NCC(=O)N[C@H](C(=O)N[C@H](C(=O)N[C@@H](CC(C)C)C(=O)NCC(=O)N[C@@H](CC(C)C)C(=O)N[C@@H](CC(C)C)C(=O)N[C@@H](CCCCN)C(=O)NCC(=O)N[C@@H](CC(C)C)C(N)=O)[C@@H](C)CC)[C@@H](C)O` [ILGTILGLLKGL]: the MIC in assay [26] is 1.4 µM (≈ 1.7 µg/mL); in assay [16] it was 10.3 µM (≈ 12.5 µg/mL); in assay [27], 10.3 µM (≈ 12.5 µg/mL); in assay [28], 1.24 µM (≈ 1.5 µg/mL).
Consider `CC(C)C[C@H](NC(=O)[C@H](CC(C)C)NC(=O)[C@H](CCCN=C(N)N)NC(=O)[C@H](CCCN=C(N)N)NC(=O)[C@H](CC(C)C)NC(=O)[C@H](CC(C)C)NC(=O)[C@H](CCCN=C(N)N)NC(=O)[C@H](CCCN=C(N)N)NC(=O)[C@H](CC(C)C)NC(=O)[C@H](CC(C)C)NC(=O)[C@H](CCCN=C(N)N)NC(=O)[C@H](CCCN=C(N)N)NC(=O)[C@H](CC(C)C)NC(=O)[C@H](CC(C)C)NC(=O)[C@H](CCCN=C(N)N)NC(=O)[C@H](CCCN=C(N)N)NC(=O)[C@H](CC(C)C)NC(=O)[C@H](CC(C)C)NC(=O)[C@@H](N)CCCN=C(N)N)C(=O)N[C@@H](CCCN=C(N)N)C(=O)O` [RLLRRLLRRLLRRLLRRLLR], for which the MIC was 0.738 µM (≈ 2 µg/mL) in assay [17]; 0.738 µM (≈ 2 µg/mL) in assay [18]; 0.738 µM (≈ 2 µg/mL) in [3]; 0.369 µM (≈ 1 µg/mL) in assay [4]; 0.738 µM (≈ 2 µg/mL) in assay [19]; 2.95 µM (≈ 8 µg/mL) in [20]. Besides, the MIC in assay [21] was found to be 0.738 µM (≈ 2 µg/mL); in [22], 0.369 µM (≈ 1 µg/mL); in assay [23], 2.95 µM (≈ 8 µg/mL); in assay [24] it was 0.738 µM (≈ 2 µg/mL); in assay [25], 2.95 µM (≈ 8 µg/mL).
Regarding `CC[C@H](C)[C@H](N)C(=O)N[C@@H](CC(N)=O)C(=O)N[C@@H](Cc1c[nH]c2ccccc12)C(=O)N[C@@H](CCCCN)C(=O)N[C@@H](CCCCN)C(=O)N[C@H](C(=O)N[C@@H](C)C(=O)N[C@@H](CCC(=O)O)C(=O)N[C@H](C(=O)NCC(=O)NCC(=O)N[C@@H](CCCCN)C(=O)N[C@H](C(=O)N[C@@H](CC(C)C)C(=O)N[C@@H](CO)C(=O)N[C@@H](CO)C(=O)N[C@@H](CC(C)C)C(N)=O)[C@@H](C)CC)C(C)C)[C@@H](C)CC` [INWKKIAEVGGKILSSL], the values for the MIC in assay [13] and in assay [29] were 1.08 µM (≈ 2 µg/mL) and 4.31 µM (≈ 8 µg/mL), respectively.
